Test results: patent US20080153792A1, “Drug Identification and Treatment Method” (priority 2006, published 2008)
“Also recorded” adds a separate entry of the source. Where two headings read alike, the source gives them in different places.

How the values were obtained:
[1] = tested on: NF-κB; assay: NF-κB-bla THP-1 β-lactamase reporter assay; format: cell-based, human
[2] = tested on: CD1 male mice, carrageenan-λ induced pleurisy; assay: carrageenan-λ induced lung (pleural cavity) inflammation in mice; format: in vivo, mouse; conditions: for number of neutrophils relative to untreated carrageenan-λ control (100%): 4 h after carrageenan
[3] = tested on: MG-63 cells; assay: reversal of glucocorticoid effects in MG-63 osteosarcoma cells; format: cell-based, human
[4] = tested on: female SJL mice, EAE; assay: experimental autoimmune encephalomyelitis (EAE), PLP-induced, Example 23; format: in vivo, mouse; conditions: for course of EAE compared to vehicle-treated mice: 0.1 mg q.d. po from clinical onset; for mean cumulative score, treatment period (day 1 to 30): vehicle 24.8±7.8; for mean cumulative score, follow-up period (day 31 to day 54): vehicle 22.7±15.8
[5] = metabolic stability in liver microsomes: human; conditions: 10 min
Method: (§1) The protocol was performed as follows. […] (2) Set up samples as follows. […] (4) The internal standard/acetonitrile solution.

[6] = metabolic stability in liver microsomes: mouse; conditions: 10 min
Method: as §1

[7] = Homo sapiens, THP-1, read-out: IC50, this protocol
[8] = anti-inflammatory activity in this protocol, read-out: IC50
[9] = 0.1 mg q.d. po from clinical onset to day 30
[10] = Homo sapiens, THP-1, read-out: IC50 for inhibition of NF-κB activation, after LPS stimulation, 50% of the maximum inhibition the compound can induce, averages of 2-4 assays
[11] = after LPS stimulation, 50% of the maximum inhibition the compound can induce, averages of 2-4 assays, read-out: IC50 for inhibition of NF-κB activation
[12] = compounds increased NF-κB activity, read-out: IC50 of compounds that increased NF-κB activity

C[C@]12CC[C@H]3[C@@H](CCC4C[C@H](O)CC[C@@]43C)[C@@H]1C[C@@H](O)[C@@H]2O (stereo partly drawn) [3α,16α,17β-trihydroxyandrostane]
IC50 [1, 7]: 6.9 µM

C[C@]12CC[C@H]3[C@@H](CCC4C[C@H](O)CC[C@@]43C)[C@@H]1C[C@H](O)[C@@H]2O (stereo partly drawn) [3α,16β,17β-trihydroxyandrostane]
IC50 [1, 7]: 19 µM | number of neutrophils relative to untreated carrageenan-λ control (100%) ([2]; 0.001 mg s.c. 24 h and 1 h before carrageenan-λ): 95% | number of neutrophils relative to untreated carrageenan-λ control (100%) ([2]; 0.01 mg s.c. 24 h and 1 h before carrageenan-λ): 50% | number of neutrophils in the pleura ([2]; 0.1 mg and 0.01 mg doses s.c.): significant reduction | number of neutrophils relative to untreated carrageenan-λ control (100%) ([2]; 0.1 mg s.c. 24 h and 1 h before carrageenan-λ): 42%

C[C@]12CC[C@H]3[C@@H](CCC4=C[C@H](O)CC[C@@]43C)[C@@H]1CC[C@@H]2O [3α,17β-dihydroxyandrost-4-ene]
dexamethasone induced 11β-HSD mRNA ([3]; similar protocols): decrease | reversal of dexamethasone-induced suppression of IL-8 and IL-6 ([3]; similar protocols): statistically significant reversal

CC12CCC(O)(C(F)(F)C(F)(F)F)C=C1CCC1C2CCC2(C)C(O)CCC12 (stereo not drawn) [3α-pentafluoroethylandrost-4-ene-3β,17β-diol]
IC50 [1, 8]: 0.0031 µM

C[C@]12CC[C@H]3[C@@H](CC=C4C[C@](O)(C(F)(F)C(F)(F)F)CC[C@@]43C)[C@@H]1CC[C@@H]2O [3α-pentafluoroethylandrost-5-ene-3β,17β-diol]
IC50 [1, 8]: 0.017 µM | maximum NF-κB inhibition ([1]; this protocol): 50%

C[C@]12CC[C@H]3[C@@H](CC=C4C[C@](O)(C(F)(F)F)CC[C@@]43C)[C@@H]1CC[C@@H]2O [3α-trifluoromethylandrost-5-ene-3β,17β-diol]
course of EAE compared to vehicle-treated mice [4]: significantly improved course of EAE | mean cumulative score, treatment period (day 1 to 30) [4, 9]: 11.2±4.8 | mean cumulative score, follow-up period (day 31 to day 54) ([4]; after end of treatment): 10.8±10.3

C[C@]12CC[C@H]3[C@@H]([C@H](O)C=C4C[C@@H](O)CC[C@@]43C)[C@@H]1CC[C@@H]2O [3β,7α,17β-trihydroxyandrost-5-ene]
IC50 [1, 10]: > 10 µM

C[C@]12C[C@H](O)[C@H]3[C@@H]([C@@H](O)C=C4C[C@@H](O)CC[C@@]43C)[C@@H]1CC[C@@H]2O [3β,7β,11β,17β-tetrahydroxyandrost-5-ene]
IC50 [1, 10]: > 10 µM

C[C@]12CC[C@H](O)CC1=C[C@H](O)[C@@H]1[C@@H]2CC[C@@]2(C)[C@H]1CC[C@]2(C)O [3β,7β,17β-trihydroxy-17α-methylandrost-5-ene]
osteoprotegerin levels in the presence of 30 nM dexamethasone ([3]; 10 nM compound): normal osteoprotegerin levels

CC12CCC(O)CC1=CC(O)C1C2CCC2(C)C1CCC2(O)C(F)(F)F (stereo not drawn) [3β,7β,17β-trihydroxy-17α-trifluoromethylandrost-5-ene]
IC50 [1, 11]: > 10 µM | osteoprotegerin levels in the presence of 30 nM dexamethasone ([3]; 1 μM compound): normal or basal osteoprotegerin levels

C[C@]12CC[C@H](O)CC1=CC[C@@H]1[C@@H]2[C@H](O)C[C@]2(C)C(=O)CC[C@@H]12 [3β,11α-dihydroxy-17-oxoandrost-5-ene]
IC50 [1, 10]: > 10 µM

C[C@]12CC[C@H]3[C@@H](CC=C4C[C@@H](O)CC[C@@]43C)[C@@H]1CC[C@H]2O [3β,17α-dihydroxyandrost-5-ene]
IC50 [1, 7]: > 10 µM

C[C@@]1(O)CC[C@@]2(C)[C@@H](CC[C@@H]3[C@@H]2CC[C@@]2(C)[C@H]3CC[C@]2(C)O)C1 [3β,17α-dimethylandrostane-3α,17β-diol]
IC50 [1, 12]: 0.04 µM

CC12CCC(O)CC1=CC(=O)C1C2CCC2(C)C1CCC2(C)O (stereo not drawn) [3β,17β-dihydroxy-7-oxo-17α-methylandrost-5-ene]
IC50 [1, 11]: > 10 µM | osteoprotegerin levels in the presence of 30 nM dexamethasone ([3]; 100 nM compound): increased osteoprotegerin levels

CC(=O)O[C@H]1CC[C@@]2(C)C(=C[C@H](O)[C@H]3[C@@H]4CC[C@H](O)[C@@]4(C)CC(=O)[C@@H]32)C1 [3β-acetoxy-7β,17β-dihydroxy-11-oxoandrost-5-ene]
IC50 [1, 7]: 1 µM | maximum NF-κB inhibition ([1]; this protocol): 65%

C[C@]12CC[C@H]3[C@@H](CCC4C[C@@H](C(=O)CN)CC[C@@]43C)[C@@H]1CC[C@@H]2O (stereo partly drawn) [3β-glycylandrostane-17β-ol]
IC50 ([1]; Homo sapiens, THP-1, read-out: IC50, anti-inflammatory activity in this protocol): 0.001 µM

C[C@]12CC[C@H](O)CC1CC(=O)[C@@H]1[C@@H]2CC[C@]2(C)C(=O)CC[C@@H]12 (stereo partly drawn) [3β-hydroxyandrostane-7,17-dione]
IC50 [1, 7]: > 10 µM

C[C@]12CC[C@H](O)C[C@@H]1CC[C@@H]1[C@@H]2CC[C@]2(C)[C@@H](O)C(=NO)C[C@@H]12 [5α-androstane-3β,17β-diol-16-oxime]
course of EAE compared to vehicle-treated mice [4]: very similar to that observed in the vehicle-treated mice

CC(=O)O[C@@H]1C[C@H]2[C@@H]3[C@@H](O)C=C4C[C@@H](O)CC[C@]4(C)[C@H]3CC[C@]2(C)[C@H]1O [16α-acetoxy-3β,7β,17β-trihydroxyandrost-5-ene]
IC50 ([1]; Homo sapiens, THP-1, after LPS stimulation, 50% of the maximum inhibition the compound can induce, averages of 2-4 assays, read-out: IC50 for inhibition of NF-κB activation): > 10 µM

C[C@]12CC[C@H]3[C@@H](CC=C4C[C@@H](O)CC[C@@]43C)[C@@H]1C[C@@H](Br)[C@@H]2O [16α-bromo-3β,17β-dihydroxyandrost-5-ene]
IC50 [1, 7]: > 10 µM

C[C@]12CCCCC1=CC[C@@H]1[C@@H]2CC[C@]2(C)C(=O)[C@H](F)C[C@@H]12 [16α-fluoroandrost-5-ene-17-one]
IC50 [1, 7]: 30 µM

C[C@]12CCCCC1CC[C@@H]1[C@@H]2CC[C@]2(C)C(=O)[C@H](F)C[C@@H]12 (stereo partly drawn) [16α-fluoroandrostane-17-one]
IC50 [1, 7]: > 10 µM

C[C@]12CC[C@H](O)CC1=CC[C@@H]1[C@@H]2CC[C@]2(C)C(=O)[C@@H](Br)C[C@@H]12 [16β-bromo-3β-hydroxyandrost-5-ene-17-one]
IC50 [1, 7]: > 10 µM

C[C@]12CC[C@H](O)C[C@@H]1CC[C@@H]1[C@@H]2CC[C@]2(C)C(=O)[C@@H](Br)C[C@@H]12 [16β-bromoepiandrosterone]
maximum NF-κB inhibition ([1]; this protocol): 100%

C[C@]12CCCCC1=C[C@H](O)[C@@H]1[C@@H]2CC[C@]2(C)C(=O)[C@@H](F)C[C@@H]12 [16β-fluoroandrost-5-ene-7β-ol-17-one]
IC50 [1, 8]: 0.0015 µM

C#C[C@]1(O)CC[C@H]2[C@@H]3CCC4=CC(=O)CC[C@]4(C)[C@H]3CC[C@@]21C [17α-ethynylandrost-4-ene-3-one-17β-ol]
maximum NF-κB inhibition ([1]; this protocol): 80% | IC50 ([1]; this protocol, read-out: IC50): 2.9 µM

C[C@]12CC[C@H](O)CC1=CC[C@@H]1[C@@H]2CC[C@@]2(C)[C@H]1CC[C@@]2(O)C(F)(F)F [17α-trifluoromethylandrost-5-ene-3β,17β-diol]
course of EAE compared to vehicle-treated mice [4]: significantly improved course of EAE

CC12CCC(O)CC1CCC1C2CCC2(C)C1CCC2(O)C(F)(F)F (stereo not drawn) [17α-trifluoromethylandrostane-3α,17β-diol]
IC50 [1, 8]: 0.19 µM

C#C[C@@]1(O)CC[C@H]2[C@@H]3[C@@H](O)C=C4C[C@@H](O)CC[C@]4(C)[C@H]3CC[C@@]21C [17β-ethynylandrost-5-ene-3β,7β,17α-triol]
EAE incidence at the end of the treatment period ([4]; 0.1 mg q.d. po): 57.1% | course of EAE compared to vehicle-treated mice [4]: trend toward reduced cumulative score and duration | duration of the disease ([4]; 0.1 mg q.d. po from clinical onset to day 30, vehicle 12.3±4.3): 7 ± 7.9 days | mean cumulative score, treatment period (day 1 to 30) [4, 9]: 14.9±17.6 | EAE incidence at the end of the follow-up period ([4]; after end of treatment): 85.7% | mean cumulative score, follow-up period (day 31 to day 54) ([4]; after end of treatment): 18.4±20.6

C[C@]12CC[C@H]3[C@@H](CCC4C[C@@H](O)CC[C@@]43C)[C@@H]1CC[C@@H]2C(=O)CN (stereo partly drawn) [17β-glycylandrostane-3β-ol]
IC50 [1, 7]: 0.42 µM

Cc1cc(C)c(/C=C2\C(=O)Nc3ccccc32)[nH]1 [SU5416, Z-3-[(2,4-dimethylpyrrol-5-yl)methylidenyl]-2-indolinone, reference compound]
course of EAE compared to vehicle-treated mice [4]: very similar to that observed in the vehicle-treated mice; also recorded: ineffective | mean cumulative score, treatment period (day 1 to 30) [4, 9]: 25.5±8.9 | mean cumulative score, follow-up period (day 31 to day 54) ([4]; after end of treatment): 35.5±13.2

C[C@]12CC[C@H]3[C@@H]([C@H](O)C=C4C[C@H](O)CC[C@@]43C)[C@@H]1C[C@@H](O)[C@@H]2O [androst-5-ene-3α,7α,16α,17β-tetrol]
parent remaining human microsomes [5]: 100% (10 min) | parent remaining mouse microsomes [6]: 100% (10 min)

C[C@]12CC[C@H]3[C@@H](CC=C4C[C@H](O)CC[C@@]43C)[C@@H]1CC[C@@H]2O [androst-5-ene-3α,17β-diol]
IC50 [1, 7]: > 10 µM

C[C@]12CC[C@H](O)CC1=C[C@@H](O)[C@@H]1[C@@H]2CC[C@]2(C)C(=O)[C@H](O)C[C@@H]12 [androst-5-ene-3β,7α,16α-triol-17-one]
NF-κB activity compared to control cells ([1]; compound increased NF-κB activity): 140% | IC50 [1, 12]: 0.0013 µM

C[C@]12CC[C@H]3[C@@H](C(=NO)C=C4C[C@@H](O)CC[C@@]43C)[C@@H]1CC[C@@H]2O [androst-5-ene-3β,17β-diol-7-oxime]
reversal of the decrease in osteoprotegerin in the presence of 30 nM dexamethasone ([3]; concentration not given): partially reversed

C[C@]12C[C@H](O)[C@H]3[C@@H](CC=C4C[C@@H](O)CC[C@@]43C)[C@@H]1CC[C@@H]2O [androst-5-ene-3β, 11β,17β-triol]
IC50 [1, 7]: > 10 µM

C[C@]12CC[C@H]3[C@@H](CC=C4C[C@@H](O)CC[C@@]43C)[C@@H]1CC[C@@H]2OC(=O)CCC(=O)O [androst-5-ene-3β-ol-17β-succinyl ester]
IC50 [1, 8]: 0.0002 µM

C[C@]12CC[C@H](O)CC1CC[C@@H]1[C@@H]2CC[C@]2(C)C(=NO)[C@@H](O)C[C@@H]12 (stereo partly drawn) [androstane-3β,16β-diol-17-oxime]
IC50 ([1]; this protocol, read-out: IC50): 1.9 µM

TNFα
EC50 for activation of NF-κB ([1]; positive control assays, 1 hour β-lactamase substrate incubation): 0.20 ng/mL
